# Data from patent US20130196050A1, “SALTY TASTE ENHANCER” (AJINOMOTO CO., INC., priority 2010, published 2013).
# Biological target: T1, Human ENaC δ, β and γ subunit (Homo sapiens, UniProt P51168+P51170+P51172)
# T1 construct: expressed in transfected cells; host or cells: Xenopus laevis (African clawed frog) oocytes injected with cRNA
# T1 sequence (P51172 1-638 isoform P51172-1): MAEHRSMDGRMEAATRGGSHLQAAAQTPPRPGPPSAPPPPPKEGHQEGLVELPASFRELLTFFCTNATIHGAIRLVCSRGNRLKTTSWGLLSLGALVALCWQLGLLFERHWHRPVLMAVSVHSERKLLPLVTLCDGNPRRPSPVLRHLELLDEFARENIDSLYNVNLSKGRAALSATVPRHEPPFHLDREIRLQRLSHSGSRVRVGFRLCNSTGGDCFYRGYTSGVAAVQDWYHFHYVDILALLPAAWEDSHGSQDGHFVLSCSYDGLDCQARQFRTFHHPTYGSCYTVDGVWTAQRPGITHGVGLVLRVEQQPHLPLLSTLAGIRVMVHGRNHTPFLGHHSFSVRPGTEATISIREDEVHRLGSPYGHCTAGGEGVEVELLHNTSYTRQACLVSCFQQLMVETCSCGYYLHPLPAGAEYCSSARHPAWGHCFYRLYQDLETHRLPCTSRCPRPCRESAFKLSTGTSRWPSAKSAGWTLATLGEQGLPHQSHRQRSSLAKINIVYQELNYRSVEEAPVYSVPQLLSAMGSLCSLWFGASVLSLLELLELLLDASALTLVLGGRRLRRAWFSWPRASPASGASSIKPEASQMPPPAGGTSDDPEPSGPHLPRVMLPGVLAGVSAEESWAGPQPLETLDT
# T1 sequence (P51168 1-640): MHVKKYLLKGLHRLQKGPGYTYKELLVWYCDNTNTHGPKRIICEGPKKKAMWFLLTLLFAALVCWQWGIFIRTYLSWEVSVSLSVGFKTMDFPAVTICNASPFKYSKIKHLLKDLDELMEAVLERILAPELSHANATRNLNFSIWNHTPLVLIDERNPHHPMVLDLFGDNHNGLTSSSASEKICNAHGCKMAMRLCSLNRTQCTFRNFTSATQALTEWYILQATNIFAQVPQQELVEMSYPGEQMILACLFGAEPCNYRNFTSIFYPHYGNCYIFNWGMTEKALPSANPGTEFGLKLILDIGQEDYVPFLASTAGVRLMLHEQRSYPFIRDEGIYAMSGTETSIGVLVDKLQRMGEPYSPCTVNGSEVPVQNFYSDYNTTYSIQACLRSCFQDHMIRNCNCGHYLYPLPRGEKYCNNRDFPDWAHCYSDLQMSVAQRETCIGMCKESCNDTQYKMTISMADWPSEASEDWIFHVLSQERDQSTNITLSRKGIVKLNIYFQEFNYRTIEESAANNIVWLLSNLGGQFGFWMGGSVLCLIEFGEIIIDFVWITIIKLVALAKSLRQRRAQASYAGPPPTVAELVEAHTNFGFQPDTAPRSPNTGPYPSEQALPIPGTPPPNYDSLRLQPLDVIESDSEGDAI
# T1 sequence (P51170 1-649): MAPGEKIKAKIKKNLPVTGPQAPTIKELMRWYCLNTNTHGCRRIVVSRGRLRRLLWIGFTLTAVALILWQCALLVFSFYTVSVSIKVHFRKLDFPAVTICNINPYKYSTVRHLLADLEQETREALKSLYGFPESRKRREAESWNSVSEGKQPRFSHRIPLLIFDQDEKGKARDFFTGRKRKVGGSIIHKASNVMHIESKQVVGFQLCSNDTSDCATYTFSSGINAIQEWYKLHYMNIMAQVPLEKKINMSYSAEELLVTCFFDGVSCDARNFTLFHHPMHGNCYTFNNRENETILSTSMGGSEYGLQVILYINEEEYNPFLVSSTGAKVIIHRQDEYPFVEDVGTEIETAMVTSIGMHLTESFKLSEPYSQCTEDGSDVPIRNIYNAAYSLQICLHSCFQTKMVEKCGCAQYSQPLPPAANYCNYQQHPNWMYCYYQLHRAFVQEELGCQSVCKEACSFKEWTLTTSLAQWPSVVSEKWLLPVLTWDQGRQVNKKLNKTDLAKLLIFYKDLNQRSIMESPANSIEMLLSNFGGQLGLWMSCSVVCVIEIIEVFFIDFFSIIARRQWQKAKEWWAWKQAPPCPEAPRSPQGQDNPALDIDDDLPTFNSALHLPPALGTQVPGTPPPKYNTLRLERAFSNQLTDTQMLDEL
# Test: Measurement of ENaC activation potency (two electrode voltage clamp current in ENaC-expressing oocyte)
# Assay type: cell-based
# Conditions: lowest concentration increasing the current value by not less than 10% vs before addition
# Method: ENaC activation current value, namely, the inward current in ENaC-expressing oocyte was measured as follows.
# According to the method described in Motonao Nakamura, Takao Shimizu: Experiment of African clawed frog oocyte, Experimental Medicine Vol. 11, No. 3, 224-232 (1993), oocyte was collected from African clawed frog, […], and the current value was measured by a Two Electrode Voltage Clamp technique. In the present invention, ND96 (96 mM NaCl, 2 mM KCl, 1 mM MgCl2, 5 mM Hepes, 1.8 mM CaCl2, pH 7.6) was used instead of MBS buffer in the above-mentioned document. Injector NANOLITER 2000 manufactured by World Precision Instruments was used for microinjection, OpusXpress 6000A manufactured by Molecular Devices was used for current value measurement by a Two Electrode Voltage Clamp technique, and Clampfit 10.2 software manufactured by Molecular Devices was used for data analysis.
# Human ENaC δ, β and γ subunit genes shown by SEQ ID NOs: 1, 2 and 3, respectively, in the Sequence Listing were each cloned into a plasmid vector, and used as a template DNA for cRNA synthesis. cRNA was synthesized using MEGAscript kit manufactured by Ambion and according to the method of the manual of the manufacturer.
# A mixture of the same amount of ENaC δ subunit cRNA (0.4 to 0.8 μg/μL), and β and γ subunits cRNA (0.4 μg/μL) was injected into the oocyte of African clawed frog at 27.6 nL per oocyte, and the oocyte was cultured for 16 hours to 72 hours. Thereafter, the oocyte was set on a measuring apparatus OpusXpress 6000A, the electrodes were inserted into the oocyte, the voltage was clamped at a level lower by −30 mV than the resting membrane potential by a Two Electrode Voltage Clamp technique, and the current value was measured.
# To measure the ENaC activation potency, oocyte was stimulated with each test compound, and the minimum effective dose (hereinafter to be abbreviated as MED) of the compound at the time point when the electric current started to increase was measured. In this case, the minimum effective dose of the stimulation compound that increased the current value by not less than 10%, as compared to the current value before addition of the compound and without stimulation, was taken as MED. A smaller MED means higher ENaC activation potency.
# Each test compound was directly dissolved in ND96, or first dissolved in dimethyl sulfoxide (DMSO) to 100 mM, and then prepared by diluting the solution with ND96 to a concentration used for the evaluation. The concentration of the test compound in ND96 was prepared to various concentrations within the range of 0.1 nM to 300 μm.
# ND96 as a perfusion fluid was flowed at a rate of 0.5 mL/min through the measuring apparatus OpusXpress 6000A on which ENaC-expressing oocyte was set, the perfusion fluid was temporarily stopped every 3 minutes to add a test compound solution (0.25 mL) dissolved in ND96 at a rate of 0.5 mL/minute. In this way, the test compound was contacted with ENaC-expressing oocyte, and whether ENaC is activated by the compound was examined by measuring the current value. After addition of the test compound, feeding of the perfusion fluid was resumed to wash away the compound to be ready for the next addition of the compound.
# The compound was added successively from a low concentration to a high concentration to stimulate ENaC-expressing oocyte. The concentrations actually added was, for example, 1 nM, 3 nM, 10 nM, 30 nM, 100 nM, 300 nM; 1 μM, 3 μM, 10 μm, 30 μm, 100 μm, 300 μm; 1.2 μM, 6 μM, 30 μm, 150 μm of one test compound. The compound was added from low concentrations to high concentrations at 3 minute intervals. The first compound was added from a low concentration to a high concentration, then the second and the third compounds were similarly added successively to the same oocyte, and changes in the current value were measured. The current value was continuously measured from the start to the end of the experiment. […]
row,SMILES,MED value (minimum effective dose)
1,"COC(=O)[C@H](Cc1c[nH]c2ccccc12)NC(=O)c1c(O)cccc1O [Example 1, (S)-Methyl 2-(2,6-dihydroxybenzamido)-3-(1H-indol-3-yl)propanoate]",0.6 µM
2,COC(=O)[C@@H](Cc1c[nH]c2ccccc12)NC(=O)c1c(O)cccc1O [Example 2],0.6 µM
3,O=C(N[C@@H](Cc1c[nH]c2ccccc12)C(=O)O)c1c(O)cccc1O [Example 3],0.6 µM
4,O=C(N[C@H](Cc1c[nH]c2ccccc12)C(=O)O)c1c(O)cccc1O [Example 4],0.6 µM
5,O=C(NCCc1c[nH]c2ccc(O)cc12)c1ccccc1O [Example 6],3 µM
6,O=C(O)c1ccccc1C(=O)NCCc1c[nH]c2ccc(O)cc12 [Example 9],3 µM
7,COC(=O)[C@H](Cc1c[nH]c2ccc(O)cc12)NC(=O)c1c(O)cccc1O [Example 10],3 µM
8,COC(=O)[C@H](Cc1cn(C)c2ccccc12)NC(=O)c1c(O)cccc1O [Example 11],3 µM
9,O=C(N[C@@H](Cc1c[nH]c2ccc(O)cc12)C(=O)O)c1c(O)cccc1O [Example 12],3 µM
10,O=C(N[C@H](CO)Cc1c[nH]c2ccccc12)c1c(O)cccc1O [Example 14],1 µM
11,O=C(N[C@@H](Cc1c[nH]c2ccccc12)C(=O)OCc1ccccc1)c1c(O)cccc1O [Example 15],10 µM
12,COC(=O)C(C)(Cc1c[nH]c2ccccc12)NC(=O)c1c(O)cccc1O (stereo not shown) [Example 16],3 µM
13,COC(=O)C(Cc1c[nH]c2cc(F)ccc12)NC(=O)c1c(O)cccc1O (stereo not shown) [Example 17],1 µM
14,CC(Cc1c[nH]c2ccccc12)(NC(=O)c1c(O)cccc1O)C(=O)O (stereo not shown) [Example 18],3 µM
15,O=C(NC(Cc1c[nH]c2cc(F)ccc12)C(=O)O)c1c(O)cccc1O (stereo not shown) [Example 19],1 µM
16,CC(C)(C)OC(=O)N[C@@H](Cc1c[nH]c2ccccc12)C(=O)Nc1c(O)cccc1O [Example 20],10 µM

# Second part, the compound after the results:
row,MED value (minimum effective dose),SMILES
1,10 µM,"CC(C)(C)OC(=O)NC(Cc1c[nH]c2ccccc12)C(=O)Nc1c(O)cccc1O (stereo in doubt) [Example 21, tert-butyl (S)-1-(2,6-dihydroxyphenylcarbamoyl)-2-(1H-indol-3-yl)ethylcarbamate]"
2,3 µM,N[C@@H](Cc1c[nH]c2ccccc12)C(=O)Nc1c(O)cccc1O [Example 22]
3,10 µM,N[C@H](Cc1c[nH]c2ccccc12)C(=O)Nc1c(O)cccc1O [Example 23]
4,3 µM,COc1cccc(OC)c1C(=O)NCCc1c[nH]c2ccc(O)cc12 [Example 25]
5,6 µM,O=C(NCCc1c[nH]c2ccc(O)cc12)c1c(C(F)(F)F)cccc1C(F)(F)F [Example 26]
6,3 µM,O=C(NCCc1c[nH]c2ccc(O)cc12)c1c(Cl)cccc1Cl [Example 27]
7,1 to 3 µM,O=C(NCCc1c[nH]c2ccc(O)cc12)c1c(O)cc(O)cc1O [Example 28]
8,1 to 3 µM,Cc1cc(O)c(C(=O)NCCc2c[nH]c3ccc(O)cc23)c(O)c1 [Example 29]
9,1.2-6^ μM,O=C(NCCc1c[nH]c2ccc(O)cc12)c1cccc(O)c1O [Example 32]
10,1 µM,O=C(NC(Cc1c[nH]c2ccccc12)C(=O)O)c1cccc(O)c1O (stereo not shown) [Example 39]
11,1 µM,O=C(N[C@H](Cc1c[nH]c2ccccc12)C(=O)O)c1cc(O)ccc1O [Example 41]
12,1 to 3 µM,O=C(NCCc1c[nH]c2ccccc12)c1cc(O)ccc1O [Example 42]
13,1 to 3 µM,O=C(CCc1ccccc1)N[C@@H](Cc1c[nH]c2ccccc12)C(=O)O [Example 63]
14,3 µM,COc1ccc(CCC(=O)N[C@@H](Cc2c[nH]c3ccccc23)C(=O)O)cc1 [Example 65]
15,3 µM,O=C(CCc1ccc2c(c1)OCO2)N[C@@H](Cc1c[nH]c2ccccc12)C(=O)O [Example 66]
16,1 to 3 µM,Cn1cc(C[C@H](NC(=O)CCc2ccccc2)C(=O)O)c2ccccc21 [Example 71]
17,1 to 3 µM,O=C(CCc1ccccc1)N[C@@H](Cc1ccccc1)C(=O)O [Example 72]
18,1 to 3 µM,Cc1ccc2[nH]cc(CC(NC(=O)CCc3ccccc3)C(=O)O)c2c1 (stereo not shown) [Example 73]
